From ChEMBL document CHEMBL1157999, “A new epidioxy sterol as an antifouling substance from a palauan marine sponge, lendenfeldia chondrodes” (1999)

Tests used:
Type in all cases: functional, Mytilus edulis/galloprovincialis MCLGV-2007
Mytilus edulis [1] = assay: Antifouling activity against blue mussel assessed as responding mussel at 1 ppm by foot stimulant method
Mytilus edulis [2] = assay: Antifouling activity against blue mussel assessed as responding mussel at 100 ppm by foot stimulant method
Mytilus edulis [3] = assay: Antifouling activity against blue mussel assessed as responding mussel at 10 ppm by foot stimulant method

Work on `CC(=O)C1=CC[C@H]2[C@]3(C)CC[C@H]4C(C)(C)CCC[C@]4(C(=O)O)[C@H]3CC(=O)[C@]2(C)[C@H]1C=O` yielded an Activity (Mytilus edulis [1]) of 95%, an Activity (Mytilus edulis [2]) of 100% and an Activity (Mytilus edulis [3]) of 100%.
For `CC(=O)OC[C@]12CCCC(C)(C)[C@@H]1CC[C@]1(C)[C@@H]2C[C@H]2OC(=O)[C@H]3[C@H](C(C)=O)[C@@H](O)C[C@@H]1[C@]23C`, the Activity (Mytilus edulis [1]) was 90%, the Activity (Mytilus edulis [2]) was 100% and the Activity (Mytilus edulis [3]) was 100%.
`C=C(CC[C@@H](C)[C@H]1CC[C@@H]2[C@]1(C)CC=C1[C@]23C=C[C@]2(C[C@@H](O)CC[C@]12C)OO3)C(C)C` gave an Activity (Mytilus edulis [1]) of 0%, an Activity (Mytilus edulis [2]) of 0% and an Activity (Mytilus edulis [3]) of 0%.
`CC(C)CCC[C@@H](C)[C@H]1CC[C@@H]2[C@]1(C)CC[C@H]1[C@]23C=C[C@]2(C[C@@H](O)CC[C@]12C)OO3` was tested, and the Activity (Mytilus edulis [1]) was 0%, the Activity (Mytilus edulis [2]) was 0% and the Activity (Mytilus edulis [3]) was 0%.
`C=CC(CC[C@@H](C)[C@H]1CC[C@@H]2[C@]1(C)CC[C@H]1[C@]23C=C[C@]2(C[C@@H](O)CC[C@]12C)OO3)(OO)C(C)C` (mixture of isomers) showed an Activity (Mytilus edulis [1]) of 0%, an Activity (Mytilus edulis [2]) of 95% and an Activity (Mytilus edulis [3]) of 20%.
In the case of `CC(=O)O[C@H]1C[C@H]2[C@@](C)(CC[C@H]3C(C)(C)CCC[C@@]32C=O)[C@@H]2CC=C(C(C)=O)[C@H](C=O)[C@@]12C`, the Activity (Mytilus edulis [1]) is reported as 10%, the Activity (Mytilus edulis [2]) is reported as 75% and the Activity (Mytilus edulis [3]) is reported as 55%.
